Results on one molecule are retold here after patent US20160346255A1, “METHODS, AGENTS AND COMPOSITIONS FOR TREATMENT OF INFLAMMATORY CONDITIONS” (Betanien Hospital, priority 2014, published 2016).

Non-standard residues stand in square brackets, D forms with d. Residues, ends and D or L forms follow the SMILES beside them. *: point of attachment. dPhe(4-NHCONH2) = NC(=O)Nc1ccc(C[C@@H](N)C(=O)O)cc1; Dihydroorotyl(S) = O=C1C[C@@H](C(=O)*)NC(=O)N1; dPhe(4-Cl) = N[C@H](Cc1ccc(Cl)cc1)C(=O)O; Phe(4-NH2) = Nc1ccc(C[C@H](N)C(=O)O)cc1; d2Nal = N[C@H](Cc1ccc2ccccc2c1)C(=O)O; Lys(iPr) = CC(C)NCCCC[C@H](N)C(=O)O; d3Pal = N[C@H](Cc1cccnc1)C(=O)O A value given as a limit tells only on which side of the number the result lay.

The test concerns Patient with Lupus. The test is described as follows: Lupus patient treated with degarelix (and earlier therapies). The class given is in vivo, human. The procedure:
Example of Treating a Patient with Lupus with a GnRH Antagonist
Due to their painful condition, they have been followed up by a pain clinic. They were offered a tricyclic antidepressant, amitriptyline 25 mg in March 2014 for their painful condition.
Therefore, we decided to offer […] degarelix. GnRH antagonists have shown anti-inflammatory effects and therefore we considered that degarelix, a depot GnRH antagonist, may have a therapeutic effect in lupus. 09.15.14, […] received […] loading dose of degarelix, 240 mg s.c.
They received their second dose of degarelix in October 2014, 80 mg s.c. They continue on 80 mg s.c. every two weeks.

For the molecule `CC(=O)N[C@H](Cc1ccc2ccccc2c1)C(=O)N[C@H](Cc1ccc(Cl)cc1)C(=O)N[C@H](Cc1cccnc1)C(=O)N[C@@H](CO)C(=O)N[C@@H](Cc1ccc(NC(=O)[C@@H]2CC(=O)NC(=O)N2)cc1)C(=O)N[C@H](Cc1ccc(NC(N)=O)cc1)C(=O)N[C@@H](CC(C)C)C(=O)N[C@@H](CCCCNC(C)C)C(=O)N1CCC[C@H]1C(=O)N[C@H](C)C(N)=O` [degarelix] (Ac-[d2Nal][dPhe(4-Cl)][d3Pal]S[Phe(4-NH2)](Dihydroorotyl(S))[dPhe(4-NHCONH2)]L[Lys(iPr)]P[dA]-NH2), the Total urinary protein is recorded as 0.17 g/L (7 Nov. 2014, 15 Sep. 2014 0.78); 0.15 ^2 g/L (14 Oct. 2014, 15 Sep. 2014 0.78); 0.75 ↑ g/L (23 Sep. 2014, 15 Sep. 2014 0.78). The “LH (<12)” value is less than 0.3 (7 Nov. 2014, 15 Sep. 2014 11) and less than 0.3 (23 Sep. 2014, 15 Sep. 2014 11). The “FSH (<12)” value (7 Nov. 2014, 15 Sep. 2014 14) is on record as less than 0.1; the “FSH (<12)” value (14 Oct. 2014, 15 Sep. 2014 14) is less than 0.1; the “FSH (<12)” value (23 Sep. 2014, 15 Sep. 2014 (loading dose day) 14) is 2. The “ANA (<1)” value is 26↑ (7 Nov. 2014, 15 Sep. 2014 >32 out of range); 28↑ (14 Oct. 2014, 15 Sep. 2014 >32 out of range); 31 ↑ (25 Sep. 2014, 15 Sep. 2014 >32 out of range). Besides, where the note is “by 1 month of treatment, balance improved”, the Parasthesias result is given as “no longer has parasthesias”. In addition, the Proteinuria result (by 1 month, still in remission at 2 months) is listed as “complete remission”. In addition, the Morning pain was determined as 0 h (by 8 weeks, before 3.5 hours); 1.5 h (by day 5, before 3.5 hours); 0 h (by day 10, before 3.5 hours). For the same molecule, the “Ulcers on toes and hands” value (by day 10 of treatment) is “several ulcers had healed”. In addition, the Foot erythema entry (week 8 (FIG. 8)) is reported as “decreased”.
